Type in all cases: cell-based, human
For test [1], the system named is Luminal A breast cancer tissue. The test can be described thus: Estrogen supplementation effect on in vitro culture of Luminal A breast cancer tissue chunks. The note with it: 200 ng/mL, medium with 10% autologous serum. Here is the method:
(§1) The system is tested mainly for colorectal cancer and Luminal A breast cancer. Thereby a tissue specimen is manually cut in small chunks at a size of 1 mm to 2 mm per side. The pieces are placed in between two collagen scaffolds having a diameter of 8 mm to create an assembly or “sandwich” that it is then placed in a perfusion chamber of the 3D perfusion bioreactor. For each bioreactor, 8-10 mL of culture media are used. The chunks are cultured for 10 to 20 days without medium change.
(§2) Thereby, essentially the same or similar methods and procedures are applied as described hereinbefore in connection with the second example directed to colorectal cancer tissue.
(§3) Luminal A breast cancer is defined as estrogen receptor (ER) positive, progesterone receptor (PR) positive, human epidermal growth factor receptor 2 (HER2) negative and with few proliferating tumor cells (low % of Ki67 positive cells). This type of tumor requires estrogen as growth factor for its survival and expansion. The downsized tissue or tissue chunks are cultured in a medium containing 10% of human autologous serum (AS), therefore receiving all the growth factors comprising the estrogen. […]
The estrogen supplementation effect on in vitro culture is evaluated. […]

Test [2] concerns Luminal A breast cancer tissue. The test can be described thus: In-vitro drug test on Luminal A breast cancer tissue chunks cultured in 3D perfusion bioreactor. The note with it: 100 nM, added at day 0 of bioreactor culture. Here is the method:
as §1, §2, §3

For test [3], the system named is tumor infiltrating lymphocytes (TILs) in Luminal A Breast Cancer (MAM18). Nature of the test: PHA stimulation of tumor infiltrating lymphocytes in in vitro cultured tumor chunks (immunohistochemistry CD45, CD3, CD68). The note with it: 1 ng/mL added at day 0, 7 days. Here is the method: One important component of the tumor microenvironment is represented by the tumor infiltrating lymphocytes (TILs) that for some tumor types plays an important role by determining the patient prognosis and it is gaining a major attention in the so called cancer immune-therapy. By using PHA (Phytohemagglutinin), TILs are stimulated in their metabolic and proliferative activity, in order to understand if it was possible their stimulation inside the in vitro cultured tumor chunks. The PHA (1 ng/mL) is added at the beginning of the bioreactor culture (day 0).
These raise the possibility to study immunological question or test cancer immunotherapies on in vitro cultured tumor specimens.

Regarding 2-Estradiol, the “survival and proliferation of the tissue with extra estrogen supplementation (E+) versus without (E-)” value in test [1] is on record as “do not show any particular difference”.

On to `C[C@]12CC[C@@H]3c4ccc(O)cc4C[C@@H](CCCCCCCCC[S+]([O-])CCCC(F)(F)C(F)(F)F)[C@H]3[C@@H]1CC[C@@H]2O` (stereo partly drawn) [Fulvestrant], for which the “effect of anti-estrogen receptor drug treatment on in vitro cultured tumor tissue (FIG. 13)” value in test [2] is on record as “there is an effect”.

With Phytohemagglutinin [PHA], the “presence of TILs after PHA treatment (CD45, CD3, CD68 staining, FIG. 14)” value in test [3] was “the presence of TILs is still detectable”.

Values taken from US10473646B2, “In vitro culturing or expanding human or animal tissue” (UNIVERSITAETSSPITAL BASEL, priority 2014, dated 2019).
